According to patent publication US20020022059A1, “Water treatment process” (priority 1996, published 2002):

Tests used:
[1] = pH 7, or more alkaline water
Excerpt: Since the incoming raw water most often has a pH of 7 or above, this causes the crystals to acquire a coating of copper hydroxide that inhibits dissolution of the blue vitriol crystals into the water.

algae bloom = assay: Application of algicide-flocculant treatment against an algae bloom in a South Texas water plant; conditions: clarifier

O.O.O.O.O.O=S(=O)([O-])[O-].[Cu+2] [blue vitriol crystals, cupric sulfate pentahydrate]
dissolution in water [1]: do not dissolve very well
outcome of algae bloom (algae bloom): had battled an algae bloom
